According to PubChem BioAssay AID2060333 (Molecular Pharmacology Branch, DTP, NCI, 2025):

Test system: 845751-090-R-J2-PDC tumor spheroid viability
Assay: Anticancer human tumor 845751-090-R-J2-PDC patient-derived head and neck squamous carcinoma cell line growth inhibition [IpAb]
Details: spheroids with HUVEC and MSC; for IC50: curve of first compound; for viability, T/C: stronger effect = lower value
Summary of the method: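 Spheroids of 60% malignant cells, 25% HUVEC and 15% MSC were exposed to targeted agents combined with ipatasertib or abemaciclib. Doses started at or near clinical Cmax (10 microM when unknown) and fell in half-log steps.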

[1] = second compound 0.1 µM, first compound 0.0316 µM
[2] = second compound 0.1 µM, first compound 0.1 µM
[3] = second compound 0.316 µM, first compound 0.0316 µM
[4] = second compound 0.316 µM, first compound 0.1 µM
[5] = second compound 1 µM, first compound 0.0316 µM
[6] = second compound 1 µM, first compound 0.1 µM
[7] = second compound 3.16 µM, first compound 0.0316 µM
[8] = second compound 3.16 µM, first compound 0.1 µM
[9] = second compound 10 µM, first compound 0.0316 µM
[10] = second compound 10 µM, first compound 0.1 µM
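Note: spheroids exposed to compounds for 7 days before readout.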
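Throughout, for viability, T/C: CTG3D luminescence normalised so that 100% = DMSO vehicle control.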

## Cn1ncc(Cl)c1-c1cc(C(=O)NC(CN)Cc2cccc(F)c2)sc1Cl (stereo not given) + CC(C)NCC(C(=O)N1CCN(c2ncnc3c2C(C)CC3O)CC1)c1ccc(Cl)cc1
Second compound 0.1 µM
  IC50: 188 nM
Second compound 0.316 µM
  IC50: < 31.6 nM
Second compound 1 µM
  IC50: < 31.6 nM
Second compound 3.16 µM
  IC50: < 31.6 nM
Second compound 10 µM
  IC50: < 31.6 nM
[1]
  viability, T/C: 84.6%
[2]
  viability, T/C: 59.2%
Second compound 0.1 µM, first compound 0.316 µM
  viability, T/C: 33.2%
Second compound 0.1 µM, first compound 1 µM
  viability, T/C: 37%
Second compound 0.1 µM, first compound 3.16 µM
  viability, T/C: 12.1%
Second compound 0.1 µM, first compound 10 µM
  viability, T/C: 0.32%
[3]
  viability, T/C: 46.6%
[4]
  viability, T/C: 35.4%
Second compound 0.316 µM, first compound 0.316 µM
  viability, T/C: 37.3%
Second compound 0.316 µM, first compound 1 µM
  viability, T/C: 34.4%
Second compound 0.316 µM, first compound 3.16 µM
  viability, T/C: 13.6%
Second compound 0.316 µM, first compound 10 µM
  viability, T/C: 0.51%
[5]
  viability, T/C: 39.3%
[6]
  viability, T/C: 37.9%
Second compound 1 µM, first compound 0.316 µM
  viability, T/C: 37.2%
Second compound 1 µM, first compound 1 µM
  viability, T/C: 27.1%
Second compound 1 µM, first compound 3.16 µM
  viability, T/C: 8.86%
Second compound 1 µM, first compound 10 µM
  viability, T/C: 0.24%
[7]
  viability, T/C: 29%
[8]
  viability, T/C: 27%
Second compound 3.16 µM, first compound 0.316 µM
  viability, T/C: 26.3%
Second compound 3.16 µM, first compound 1 µM
  viability, T/C: 24.2%
Second compound 3.16 µM, first compound 3.16 µM
  viability, T/C: 8.88%
Second compound 3.16 µM, first compound 10 µM
  viability, T/C: 0.54%
[9]
  viability, T/C: 17.5%
[10]
  viability, T/C: 16.1%
Second compound 10 µM, first compound 0.316 µM
  viability, T/C: 24.5%
Second compound 10 µM, first compound 1 µM
  viability, T/C: 13.5%
Second compound 10 µM, first compound 3.16 µM
  viability, T/C: 7.33%
Second compound 10 µM, first compound 10 µM
  viability, T/C: 0.88%

## Cn1ncnc1[C@H]1c2n[nH]c(=O)c3cc(F)cc(c23)N[C@@H]1c1ccc(F)cc1 + CC(C)NCC(C(=O)N1CCN(c2ncnc3c2C(C)CC3O)CC1)c1ccc(Cl)cc1
Second compound 0.1 µM
  IC50: 25.8 nM
Second compound 0.316 µM
  IC50: < 0.316 nM
Second compound 1 µM
  IC50: < 0.316 nM
Second compound 3.16 µM
  IC50: < 0.316 nM
Second compound 10 µM
  IC50: < 0.316 nM
Second compound 0.1 µM, first compound 0.000316 µM
  viability, T/C: 53.9%
Second compound 0.1 µM, first compound 0.001 µM
  viability, T/C: 88.8%
Second compound 0.1 µM, first compound 0.00316 µM
  viability, T/C: 57%
Second compound 0.1 µM, first compound 0.01 µM
  viability, T/C: 49.1%
[1]
  viability, T/C: 54.1%
[2]
  viability, T/C: 33.6%
Second compound 0.316 µM, first compound 0.000316 µM
  viability, T/C: 38.1%
Second compound 0.316 µM, first compound 0.001 µM
  viability, T/C: 25%
Second compound 0.316 µM, first compound 0.00316 µM
  viability, T/C: 34.4%
Second compound 0.316 µM, first compound 0.01 µM
  viability, T/C: 29.6%
[3]
  viability, T/C: 26.1%
[4]
  viability, T/C: 22.3%
Second compound 1 µM, first compound 0.000316 µM
  viability, T/C: 30.1%
Second compound 1 µM, first compound 0.001 µM
  viability, T/C: 27.1%
Second compound 1 µM, first compound 0.00316 µM
  viability, T/C: 23.8%
Second compound 1 µM, first compound 0.01 µM
  viability, T/C: 28.5%
[5]
  viability, T/C: 22.9%
[6]
  viability, T/C: 20%
Second compound 3.16 µM, first compound 0.000316 µM
  viability, T/C: 29.6%
Second compound 3.16 µM, first compound 0.001 µM
  viability, T/C: 22.4%
Second compound 3.16 µM, first compound 0.00316 µM
  viability, T/C: 20.2%
Second compound 3.16 µM, first compound 0.01 µM
  viability, T/C: 24.8%
[7]
  viability, T/C: 14.7%
[8]
  viability, T/C: 14.8%
Second compound 10 µM, first compound 0.000316 µM
  viability, T/C: 14.8%
Second compound 10 µM, first compound 0.001 µM
  viability, T/C: 16.9%
Second compound 10 µM, first compound 0.00316 µM
  viability, T/C: 12.3%
Second compound 10 µM, first compound 0.01 µM
  viability, T/C: 10.7%
[9]
  viability, T/C: 11.6%
[10]
  viability, T/C: 9.65%

## Cn1cnc2c(F)c(Nc3ccc(Br)cc3Cl)c(C(=O)NOCCO)cc21 + CCN1CCN(Cc2ccc(Nc3ncc(F)c(-c4cc(F)c5nc(C)n(C(C)C)c5c4)n3)nc2)CC1
Second compound 0.01 µM
  IC50: > 3000 nM
Second compound 0.0316 µM
  IC50: > 3000 nM
Second compound 0.1 µM
  IC50: > 3000 nM
Second compound 0.316 µM
  IC50: > 3000 nM
Second compound 1 µM
  IC50: > 3000 nM
Second compound 0.01 µM, first compound 0.00949 µM
  viability, T/C: 198%
Second compound 0.01 µM, first compound 0.03 µM
  viability, T/C: 194%
Second compound 0.01 µM, first compound 0.0949 µM
  viability, T/C: 139%
Second compound 0.01 µM, first compound 0.3 µM
  viability, T/C: 129%
Second compound 0.01 µM, first compound 0.949 µM
  viability, T/C: 109%
Second compound 0.01 µM, first compound 3 µM
  viability, T/C: 69.8%
Second compound 0.0316 µM, first compound 0.00949 µM
  viability, T/C: 171%
Second compound 0.0316 µM, first compound 0.03 µM
  viability, T/C: 148%
Second compound 0.0316 µM, first compound 0.0949 µM
  viability, T/C: 125%
Second compound 0.0316 µM, first compound 0.3 µM
  viability, T/C: 107%
Second compound 0.0316 µM, first compound 0.949 µM
  viability, T/C: 89.3%
Second compound 0.0316 µM, first compound 3 µM
  viability, T/C: 71.5%
Second compound 0.1 µM, first compound 0.00949 µM
  viability, T/C: 147%
Second compound 0.1 µM, first compound 0.03 µM
  viability, T/C: 137%
Second compound 0.1 µM, first compound 0.0949 µM
  viability, T/C: 135%
Second compound 0.1 µM, first compound 0.3 µM
  viability, T/C: 106%
Second compound 0.1 µM, first compound 0.949 µM
  viability, T/C: 82.3%
Second compound 0.1 µM, first compound 3 µM
  viability, T/C: 63.8%
Second compound 0.316 µM, first compound 0.00949 µM
  viability, T/C: 163%
Second compound 0.316 µM, first compound 0.03 µM
  viability, T/C: 150%
Second compound 0.316 µM, first compound 0.0949 µM
  viability, T/C: 136%
Second compound 0.316 µM, first compound 0.3 µM
  viability, T/C: 128%
Second compound 0.316 µM, first compound 0.949 µM
  viability, T/C: 101%
Second compound 0.316 µM, first compound 3 µM
  viability, T/C: 97.2%
Second compound 1 µM, first compound 0.00949 µM
  viability, T/C: 159%
Second compound 1 µM, first compound 0.03 µM
  viability, T/C: 167%
Second compound 1 µM, first compound 0.0949 µM
  viability, T/C: 138%
Second compound 1 µM, first compound 0.3 µM
  viability, T/C: 114%
Second compound 1 µM, first compound 0.949 µM
  viability, T/C: 107%
Second compound 1 µM, first compound 3 µM
  viability, T/C: 64%
